Patent US9718799B2, “3-aryl-4H-chromene-4-ones as antineoplastic agents for the treatment of cancer” (The University of Kentucky Research Foundation, priority 2015, dated 2017)

Tests used:
[1] = system: P388 leukemia cells; conditions: cited from earlier work
[2] = system: PC3 prostate cancer cells; experiment: Cell proliferation assay in prostate cancer PC3 cells; format: cell-based
[3] = system: PC3 prostate cancer cells; experiment: as above; format: cell-based; conditions: Homo sapiens, PC-3
Description: Cell Proliferation Assay:
PC3 prostate cancer cells were cultured in DMEM/F-12 HAM Mixture (Sigma D8437), 10% Fetal Bovine Serum (Atlanta Biological S11150). Before the treatment, 3.5×10^4 cells per well were split into 12-well plates. After 24 h, 10 μM of each compound was added to each well. DMSO was used as a control. This experiment was done in triplicate. Cell viability and number were analyzed using Vi-Cell XR Cell Viability Analyzer (Beckman Coulter).

[4] = system: different cancer cell lines; conditions: cited from earlier work

SMILES	melting point	inhibition at 10 µM [3]	other results
COCc1c(OC)cc(O)c2c(=O)cc(C)oc12 [8-(methoxymethyl)eugenin]	–	–	cytotoxicity [1]: moderate cytotoxicity
COc1ccc(-c2coc3c(COC(C)=O)c(OC(C)=O)ccc3c2=O)cc1 [Isoflavonoid 7d, 7-(Acetoxy)-8-(acetoxymethyl)-3-(4-methoxyphenyl)-4H-chromen-4-one]	–	99.2 ± 0.4%	potency at 1 µM concentration ([2]; 1 µM concentration): retained potency
Cc1oc2c3c(ccc2c(=O)c1-c1ccc(Cl)cc1)OC1OCCCC1C3 (stereo not drawn) [Isoflavonoid 21i, 3-(4-Chlorophenyl)-2-methyl-10,11,11a,12-tetrahydro-4H,7aH,9H-dipyrano[2,3-b:2′,3′-f]chromen-4-one]	205 to 206 °C	74 ± 3%	–
COc1ccc(-c2coc3c4c(ccc3c2=O)OC2(O)CCCCC2C4)cc1 (stereo not drawn) [Isoflavonoid 24a, 7a-Hydroxy-3-(4-methoxyphenyl)-8,9,10,11,11a,12-hexahydro-4H,7aH-pyrano[2,3-a]xanthen-4-one]	222 to 223 °C	30 ± 15%	–
COc1ccc(-c2coc3c4c(ccc3c2=O)OC2(O)CCCCC2C4)cc1OC (stereo not drawn) [Isoflavonoid 24b, 3-(3,4-Dimethoxyphenyl)-7a-hydroxy-8,9,10,11,11a,12-hexahydro-4H,7aH-pyrano[2,3-a]xanthen-4-one]	214 to 216 °C	56 ± 5%	–
O=c1c(-c2ccc(O)cc2)coc2cc(O)cc(O)c12 [genistein (B), genistein]	–	–	IC50 [4]: 15 to 100 µM

Further lines, with some results ahead:

melting point	SMILES	inhibition at 10 µM [3]	other results
196 to 198 °C	COc1ccc(-c2coc3c4c(ccc3c2=O)OC2=C(C4)C(=O)CC(C)(C)C2)cc1OC [Isoflavonoid 22b, 3-(3,4-Dimethoxyphenyl)-9,9-dimethyl-8,9,10,12-tetrahydro-4H,11H-pyrano[2,3-a]xanthene-4,11-dione]	86 ± 1%	inhibition at 1 µM ([2]; Homo sapiens, PC-3, 1 μM): 31%; inhibition at 10 µM ([3]; PC3 cells, 10 μM): 86%
212 to 213 °C	COc1ccc(-c2c(C)oc3c4c(ccc3c2=O)OC2(O)CCCCC2C4)cc1 (stereo not drawn) [Isoflavonoid 24g, 7a-Hydroxy-3-(4-methoxyphenyl)-2-methyl-8,9,10,11,11a,12-hexahydro-4H,7aH-pyrano[2,3-a]xanthen-4-one]	78 ± 1%	–
155 to 157 °C	COc1ccc(-c2coc3c(C)c4c(cc3c2=O)CC2CCOC2O4)cc1 (stereo not drawn) [Isoflavonoid 25a, 3-(4-Methoxyphenyl)-11-methyl-6a,7,8,9a-tetrahydro-4H,6H-furo[2,3-b]pyrano[3,2-g]chromen-4-one]	78 ± 3%	–
